Patent US7125958B1, “Malaria polypeptides” (priority 1997, dated 2006)

How the values were obtained:
Assay type in all cases: cell-based, Plasmodium falciparum
[1] = test system: FCR3S1.2 infected pRBC rosettes; details: competitive rosette-reformation, enzyme 60–90 min
FCR3S1 rosetting = details: compared to mock treated control cultures
R29 rosettes = experiment: Heparinase treatment, rosettes of strain R29; details: not shown
TM180 rosettes = experiment: Heparinase treatment, rosettes of strain TM180; details: not shown
TM 284 rosetting = test system: TM 284 rosetting
[2] = test system: uninfected RBC rosette binding capacity; details: compared to non-treated RBC

Which results are given for Heparinase III?
effect of enzyme treatment of the uninfected erythrocyte on rosette binding [1]: treatment blocked the binding; change in rosetting after treatment of whole cultures, FCR3S1 (FCR3S1 rosetting): drastic reduction of the rosetting capacity; effect of heparinase treatment on rosettes, R29 (R29 rosettes): not affected; effect of heparinase treatment on rosettes, TM180 (TM180 rosettes): disrupted the rosettes; change in rosetting after treatment of whole cultures, TM 284 (TM 284 rosetting; compared to mock treated control cultures): somewhat lower decrease; effect of heparinase treatment on rosettes, TM284 (TM 284 rosetting; not shown): disrupted the rosettes; decrease of rosette binding capacity of treated uninfected RBC [2]: 4–5 fold
